# Legend:
# Assay in all cases: Test B pre-/postemergence plant response
# Assay type in all cases: in vivo
# [1] = system: Italian ryegrass (Lolium multiflorum)
# In short: (§1)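 Plants treated either at seeding (loam/sand soil) or postemergence at 2 to 18 cm height, using a surfactant-containing non-phytotoxic solvent formulation. Evaluation was visual after 13 to 15 days, 0 to 100 scale relative to controls.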
# [2] = system: Surinam grass (Brachiaria decumbens)
# In short: as §1
# [3] = system: bermudagrass (Cynodon dactylon)
# In short: as §1
# [4] = system: blackgrass (Alopecurus myosuroides)
# In short: as §1
# corn (Zea mays) = system: corn (Zea mays)
# In short: as §1
# [5] = system: downy bromegrass (Bromus tectorum)
# In short: as §1
# [6] = system: giant foxtail (Setaria faberii)
# In short: as §1
# [7] = system: goosegrass (Eleusine indica)
# In short: as §1
# [8] = system: green foxtail (Setaria viridis)
# In short: as §1
# [9] = system: johnsongrass (Sorghum halepense)
# In short: as §1
# kochia (Kochia scoparia) = system: kochia (Kochia scoparia)
# In short: as §1
# [10] = system: lambsquarters (Chenopodium album)
# In short: as §1
# [11] = system: large crabgrass (Digitaria sanguinalis)
# In short: as §1
# [12] = system: ragweed (common ragweed, Ambrosia elatior)
# In short: as §1
# [13] = system: velvetleaf (Abutilon theophrasti)
# In short: as §1
# [14] = system: woolly cupgrass (Eriochloa villosa)
# In short: as §1
# [15] = system: yellow nutsedge (Cyperus esculentus)
# In short: as §1
# [16] = 250 g ai/ha, Preemergence, 0 to 100 scale
# [17] = Postemergence, 31 g ai/ha, scale 0 to 100 (0 no effect, 100 complete control)
# [18] = Postemergence, 62 g ai/ha, scale 0 (no effect) to 100 (complete control), 13 to 15 days
# [19] = Postemergence, 125 g ai/ha, visual rating after 13 to 15 days, scale 0 (no effect) to 100 (complete control)
# [20] = Postemergence, 250 g ai/ha, scale 0 to 100
# [21] = Preemergence, 31 g ai/ha, scale 0 to 100 (0 no effect, 100 complete control)
# [22] = Preemergence, 62 g ai/ha, scale 0 to 100, 0 no effect, 100 complete control
# [23] = Preemergence, 125 g ai/ha, 0 to 100 scale
compound,measurement,setting,value
O=C1CCCC(O)=C1C(=O)c1cnc(-c2ccccc2)n(-c2ccc(F)cc2)c1=O [Compound 24],"Plant response rating, Ryegrass, Italian",[1]; [16],10
same,"Plant response rating, Ryegrass, Italian",[1]; [17],0
same,"Plant response rating, Ryegrass, Italian",[1]; [18],5
same,"Plant response rating, Ryegrass, Italian",[1]; [19],40
same,"Ryegrass, Italian plant response rating",[1]; [20],50
same,"Plant response rating, Ryegrass, Italian",[1]; [21],0
same,"Plant response rating, Ryegrass, Italian",[1]; [22],0
same,"Ryegrass, Italian plant response rating",[1]; [23],10
same,"Plant response rating, Surinam Grass",[2]; [16],100
same,"Plant response rating, Surinam Grass",[2]; [17],50
same,"Plant response rating, Surinam Grass",[2]; [18],55
same,"Plant response rating, Surinam Grass",[2]; [19],60
same,Surinam Grass plant response rating,[2]; [20],80
same,"Plant response rating, Surinam Grass",[2]; [21],65
same,"Plant response rating, Surinam Grass",[2]; [22],75
same,Surinam Grass plant response rating,[2]; [23],95
same,"Plant response rating, Bermudagrass",[3]; [16],100
same,"Plant response rating, Bermudagrass",[3]; [17],85
same,"Plant response rating, Bermudagrass",[3]; [18],95
same,"Plant response rating, Bermudagrass","[3]; Postemergence, 125 g ai/ha, scale 0 to 100 (0 no effect, 100 complete control), 13 to 15 days",100
same,Bermudagrass plant response rating,[3]; [20],100
same,"Plant response rating, Bermudagrass",[3]; [21],95
same,"Plant response rating, Bermudagrass",[3]; [22],100
same,Bermudagrass plant response rating,[3]; [23],100
same,"Plant response rating, Blackgrass",[4]; [16],10
same,"Plant response rating, Blackgrass",[4]; [17],5
same,"Plant response rating, Blackgrass",[4]; [18],10
same,"Plant response rating, Blackgrass",[4]; [19],40
same,Blackgrass plant response rating,[4]; [20],50
same,"Plant response rating, Blackgrass",[4]; [21],0
same,"Plant response rating, Blackgrass",[4]; [22],0
same,Blackgrass plant response rating,[4]; [23],0
same,"Plant response rating, Corn",corn (Zea mays); [16],5
same,"Plant response rating, Corn",corn (Zea mays); [17],30
same,"Plant response rating, Corn",corn (Zea mays); [18],50
same,"Plant response rating, Corn",corn (Zea mays); [19],85
same,Corn plant response rating,corn (Zea mays); [20],85
same,"Plant response rating, Corn",corn (Zea mays); [21],0
same,"Plant response rating, Corn",corn (Zea mays); [22],0
same,Corn plant response rating,corn (Zea mays); [23],0
same,"Plant response rating, Bromegrass, Downy",[5]; [16],20
same,"Plant response rating, Bromegrass, Downy",[5]; [17],25
same,"Plant response rating, Bromegrass, Downy",[5]; [18],50
same,"Plant response rating, Bromegrass, Downy",[5]; [19],70
same,"Bromegrass, Downy plant response rating",[5]; [20],75
same,"Plant response rating, Bromegrass, Downy",[5]; [21],0
same,"Plant response rating, Bromegrass, Downy",[5]; [22],0
same,"Bromegrass, Downy plant response rating",[5]; [23],0
same,"Plant response rating, Foxtail, Giant",[6]; [16],100
same,"Plant response rating, Foxtail, Giant",[6]; [17],70
same,"Plant response rating, Foxtail, Giant",[6]; [18],85
same,"Plant response rating, Foxtail, Giant",[6]; [19],90
same,"Foxtail, Giant plant response rating",[6]; [20],95
same,"Plant response rating, Foxtail, Giant",[6]; [21],30
same,"Plant response rating, Foxtail, Giant",[6]; [22],85
same,"Foxtail, Giant plant response rating",[6]; [23],90
same,"Plant response rating, Goosegrass",[7]; [16],100
same,"Plant response rating, Goosegrass",[7]; [17],85
same,"Plant response rating, Goosegrass",[7]; [18],85
same,"Plant response rating, Goosegrass",[7]; [19],85
same,Goosegrass plant response rating,[7]; [20],98
same,"Plant response rating, Goosegrass",[7]; [21],85
same,Goosegrass plant response rating,[7]; [23],100
same,"Plant response rating, Foxtail, Green",[8]; [16],100
same,"Plant response rating, Foxtail, Green",[8]; [17],40
same,"Plant response rating, Foxtail, Green",[8]; [18],40
same,"Plant response rating, Foxtail, Green",[8]; [19],90
same,"Foxtail, Green plant response rating",[8]; [20],95
same,"Plant response rating, Foxtail, Green",[8]; [21],0
same,"Plant response rating, Foxtail, Green",[8]; [22],40
same,"Foxtail, Green plant response rating",[8]; [23],100
same,"Plant response rating, Johnsongrass",[9]; [16],90
same,"Plant response rating, Johnsongrass",[9]; [17],60
same,"Plant response rating, Johnsongrass",[9]; [18],60
same,"Plant response rating, Johnsongrass",[9]; [19],70
same,Johnsongrass plant response rating,[9]; [20],80
same,"Plant response rating, Johnsongrass",[9]; [21],20
same,"Plant response rating, Johnsongrass",[9]; [22],85
same,Johnsongrass plant response rating,[9]; [23],90
same,"Plant response rating, Kochia",kochia (Kochia scoparia); [16],100
same,"Plant response rating, Kochia",kochia (Kochia scoparia); [17],70
same,"Plant response rating, Kochia",kochia (Kochia scoparia); [18],70
same,"Plant response rating, Kochia",kochia (Kochia scoparia); [19],80
same,Kochia plant response rating,kochia (Kochia scoparia); [20],100
same,"Plant response rating, Kochia",kochia (Kochia scoparia); [21],100
same,"Plant response rating, Kochia",kochia (Kochia scoparia); [22],100
same,Kochia plant response rating,kochia (Kochia scoparia); [23],100
same,"Plant response rating, Lambsquarters",[10]; [16],100
same,"Plant response rating, Lambsquarters",[10]; [17],90
same,"Plant response rating, Lambsquarters",[10]; [18],90
same,"Plant response rating, Lambsquarters",[10]; [19],90
same,Lambsquarters plant response rating,[10]; [20],100
same,"Plant response rating, Lambsquarters",[10]; [21],98
same,"Plant response rating, Lambsquarters",[10]; [22],100
same,Lambsquarters plant response rating,[10]; [23],100
same,"Plant response rating, Crabgrass, Large",[11]; [16],100
same,"Plant response rating, Crabgrass, Large",[11]; [17],70
same,"Plant response rating, Crabgrass, Large",[11]; [18],75
same,"Plant response rating, Crabgrass, Large",[11]; [19],95
same,"Crabgrass, Large plant response rating",[11]; [20],100
same,"Plant response rating, Crabgrass, Large",[11]; [21],90
same,"Plant response rating, Crabgrass, Large",[11]; [22],98
same,"Crabgrass, Large plant response rating",[11]; [23],100
same,"Plant response rating, Ragweed",[12]; [16],100
same,"Plant response rating, Ragweed",[12]; [17],70
same,"Plant response rating, Ragweed",[12]; [18],80
same,"Plant response rating, Ragweed",[12]; [19],90
same,Ragweed plant response rating,[12]; [20],98
same,"Plant response rating, Ragweed",[12]; [21],85
same,"Plant response rating, Ragweed",[12]; [22],90
same,Ragweed plant response rating,[12]; [23],98
same,"Plant response rating, Velvetleaf",[13]; [16],100
same,"Plant response rating, Velvetleaf",[13]; [17],75
same,"Plant response rating, Velvetleaf",[13]; [18],90
same,"Plant response rating, Velvetleaf",[13]; [19],98
same,Velvetleaf plant response rating,[13]; [20],98
same,"Plant response rating, Velvetleaf",[13]; [21],98
same,"Plant response rating, Velvetleaf",[13]; [22],100
same,Velvetleaf plant response rating,[13]; [23],100
same,"Plant response rating, Cupgrass, Woolly",[14]; [16],90
same,"Plant response rating, Cupgrass, Woolly",[14]; [17],80
same,"Plant response rating, Cupgrass, Woolly",[14]; [18],80
same,"Plant response rating, Cupgrass, Woolly",[14]; [19],95
same,"Cupgrass, Woolly plant response rating",[14]; [20],95
same,"Plant response rating, Cupgrass, Woolly",[14]; [21],5
same,"Plant response rating, Cupgrass, Woolly",[14]; [22],70
same,"Cupgrass, Woolly plant response rating",[14]; [23],85
same,"Plant response rating, Nutsedge, Yellow",[15]; [16],90
same,"Plant response rating, Nutsedge, Yellow",[15]; [17],20
same,"Plant response rating, Nutsedge, Yellow",[15]; [18],30
same,"Plant response rating, Nutsedge, Yellow",[15]; [19],30
same,"Nutsedge, Yellow plant response rating",[15]; [20],70
same,"Plant response rating, Nutsedge, Yellow",[15]; [21],30
same,"Plant response rating, Nutsedge, Yellow",[15]; [22],50
same,"Nutsedge, Yellow plant response rating",[15]; [23],85
